The structures appear in SMILES notation.

This assay deals with T1, Cytochrome P450 1B1 (Homo sapiens, UniProt Q16678).
T1 sequence (Q16678 whole entry): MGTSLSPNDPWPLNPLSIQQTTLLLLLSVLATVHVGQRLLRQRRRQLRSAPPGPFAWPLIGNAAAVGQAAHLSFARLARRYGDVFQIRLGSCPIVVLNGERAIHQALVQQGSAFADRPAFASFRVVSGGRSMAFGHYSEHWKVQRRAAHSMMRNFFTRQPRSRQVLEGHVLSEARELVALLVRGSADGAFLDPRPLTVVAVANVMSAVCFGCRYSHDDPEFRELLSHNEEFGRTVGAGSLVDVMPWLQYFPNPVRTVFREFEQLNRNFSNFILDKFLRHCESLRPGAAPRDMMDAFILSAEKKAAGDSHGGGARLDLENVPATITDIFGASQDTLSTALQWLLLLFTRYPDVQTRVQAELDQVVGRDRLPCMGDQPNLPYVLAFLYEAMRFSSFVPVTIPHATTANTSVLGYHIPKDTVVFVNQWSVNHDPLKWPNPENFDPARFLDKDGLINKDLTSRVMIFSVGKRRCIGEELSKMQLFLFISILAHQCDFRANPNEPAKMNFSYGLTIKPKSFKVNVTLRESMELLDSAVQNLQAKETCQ
Briefly: EROD Assay. The following applies: pH 8; 37 °C. An excerpt:
The ethoxyresorufin-O-deethylase (EROD) assay is used to test the activity of CYP1B1.
In turn, `Oc1ccc(/C=C/c2cc(O)cc(O)c2)cc1` [5-[(E)-2-(4-hydroxyphenyl)ethenyl]benzene-1,3-diol] came in with a Ki of 177 nM. The result for `Oc1cc(O)cc(/C=C/c2ccccc2)c1` [(E)-5-(2-phenylethenyl)-1,3-benzenediol] reads 74.3 nM; that for `Oc1cc(O)cc(/C=C/c2ccc(F)cc2)c1` [Stilbene, 8f], 323 nM. The result for `Oc1cc(O)cc(/C=C/c2ccoc2)c1` [Stilbene, 15f] reads 1110 nM; that for `Oc1cc(O)cc(/C=C/c2ccsc2)c1` [Stilbene, 16f], 1180 nM.

The record behind these values is BindingDB's records for doi:10.1016/j.chembiol.2007.05.004 (University of Tokyo, 2007).
